In assay [1] the test system is FGF2 growth factor gene expression. Nature of the assay: FGF2 gene expression, AFFYMETRIX human arrays.
A further assay deals with GEO colon cancer model. As to the kind of experiment: Tumor growth inhibition in GEO colon cancer model. Format: in vivo. To be noted: compared to bevacizumab.
Assay [2] relates to FGF2-stimulated cancer cell lines. Nature of the assay: FGF2-stimulated tumor cell proliferation, panel of cancer cell lines. Format: cell-based. To be noted: for Brivanib-resistant (>3 μM) cell lines, number / Brivanib-sensitive (≦3 μM) cell lines, number: following FGF2 stimulation. As for the experimental part: […], GEO, L2987, 786-0, A549, A498, Du145, PANC-1, ACHN, HT1197, CALU6, SKOV3, 769-[…], HCT166 and UMUC3. […] Gene expression profiling was performed on RNA samples from tumor cell lines using AFFYMETRIX® GeneChip System.

Assay [3] relates to A2780 ovarian cancer cells. As to the kind of experiment: FGF2-induced proliferation of A2780 ovarian cancer cells (modified MTS assay). Type of assay: cell-based. The protocol: Cell proliferation was determined by a modified MTS assay with […] 96® Aqueous One Solution Reagent (Promega, Madison, Wis.). A2780 ovarian cancer cells, MIAPAC-2 pancreatic cancer cells, or GEO colon cancer cells were seeded on 96-well flat-bottomed tissue culture plates (Becton Dickinson, San Jose, Calif.) at a concentration of 3×10^3 cells/well in RPMI 1640 with 1% fetal bovine serum at 37° C. in 5% carbon dioxide/95% air in the presence of 100 units/ml penicillin, 100 μg/ml streptomycin and allowed to adhere to the plate overnight. Then the cells were incubated in the presence of each concentration of 0 (control), 0.3, 0.6, 1.25, 2.5, 5, 10 ng/ml of FGF2 or VEGF for another 72 hours at 37° C. in a humidified atmosphere of 5% CO2 in air. After treatment, 20 μl of […] 96® Aqueous One Solution Reagent was dropped into each well of plates. After 180 minutes incubation, the optical densities (OD) of these samples were directly measured using SPECTRAMAX® plus (Molecular Device, California) and reference wavelength of 490 nm. The OD of control samples was regarded as 100. Each condition was performed with 4 wells and experiment was repeated twice.
(In general: Tetrazolium dyes change colour on reduction, which living cells bring about.)

The test system of a further assay is sVEGFR2. Nature of the assay: Plasma sVEGFR2 change from baseline in patients. Type of assay: in vivo, human.
Assay [4] relates to FGF2-stimulated cancer cell lines. As to the kind of experiment: FGF2-stimulated tumor cell proliferation, panel of cancer cell lines. Format: cell-based. As to conditions: following FGF2 stimulation.

pIC50: −log10 of the molar value. “Also recorded” adds a separate entry of the source.

By pIC50 is commonly meant −log10 of the IC50, conventionally taken in molar units.

With “[(1R),2S]-2-Aminopropionic acid 2-[4-(4-fluoro-2-methyl-1H-indol-5-yloxy)-5-methylpyrrolo[2,1-f][1,2,4]triazin-6-yloxy]-1-methylethyl ester [brivanib]”, in assay [1], the “modulation of FGF2 growth factor gene expression levels” value was “modulated FGF2 growth factor gene expression levels”. The “ability to inhibit tumor growth” value in the assay on GEO colon cancer model was “increased affect on the ability to inhibit tumor growth when compared to bevacizumab”. The “Brivanib-resistant (>3 μM) cell lines, number” value in assay [2] (Bladder cell lines) is 2; in assay [2] (Prostate cell lines), 1; in assay [2] (Total of cell lines), 10; in assay [4] (Colon cell lines), 3; in assay [4] (NSCLC cell lines) it was 1; in assay [4] (Ovarian cell lines), 1. Further, the “Brivanib-resistant (>3 μM) cell lines, number” value in assay [4] (Pancreatic cell lines) and in assay [4] (Renal cell lines) was 1 throughout. Also, the “Brivanib-sensitive (≦3 μM) cell lines, number” value in assay [2] (Bladder cell lines) was determined as 1; in assay [2] (Colon cell lines), 0; in assay [2] (NSCLC cell lines), 2; in assay [4] (Ovarian cell lines) it was 1; in assay [4] (Pancreatic cell lines), 1; in assay [4] (Prostate cell lines) it was 1. Besides, the “Brivanib-sensitive (≦3 μM) cell lines, number” value in assay [4] (Renal cell lines) is listed as 3; in assay [4] (Total of cell lines), 9. Also, in assay [2] (panel of cancer cell lines, in vitro), the “inhibition of FGF2-induced tumor cell proliferation” value was “inhibited FGF2-induced tumor cell proliferation in 16 cancer cell lines; also recorded: inhibits FGF2-induced tumor cell line growth with much lower IC50 values than sunitinib”. Also, the “effect on FGF2-induced cellular proliferation” value in assay [3] (A2780 ovarian cancer cells) is “potently inhibited; also recorded: inhibits ovarian cancer and pancreatic cancer cell line growth directly”. In addition, in assay [3] (ovarian cancer cell line A2870), the “inhibition of FGF2-induced cell growth” value was over 50%. Also, the negative-log IC50 (pIC50) in assay [3] (ovarian cancer cell line A2870, read-out: IC50, FGF2-induced cell growth) is over 6.00. Further, the “sVEGFR2 change from baseline (%) (Day 26) (n = 39)” value in the assay with sVEGFR2 (FGF2+ patients (n = 24)) is reported as −23%; with sVEGFR2 (FGF2− patients (n = 19)), −15%.

The values above are taken from patent publication US20100234381A1, “BIOMARKERS AND METHODS FOR DETERMINING SENSITIVITY TO VASCULAR ENDOTHELIAL GROWTH FACTOR RECEPTOR-2 MODULATORS” (Bristol-Myers Squibb Company, priority 2007, published 2010).
